From patent US8324172B2, “G protein coupled receptor agonists and antagonists and methods of activating and inhibiting G protein coupled receptors using the same” (Tufts Medical Center, Inc., priority 2000, dated 2012)
Where a SMILES comes first, the peptide text is derived from it. Where no end group is shown, it is not given here. The star is where a group is joined. Palmitoyl = CCCCCCCCCCCCCCCC(=O)*

Key:
PAR1 = biological target: T1, PAR1 (Homo sapiens, UniProt P25116); assay: InsP formation (PLC-β) in Rat1 fibroblasts expressing human PAR1; assay type: cell-based
T1 construct: expressed in transfected cells
T1 sequence (P25116 22-425): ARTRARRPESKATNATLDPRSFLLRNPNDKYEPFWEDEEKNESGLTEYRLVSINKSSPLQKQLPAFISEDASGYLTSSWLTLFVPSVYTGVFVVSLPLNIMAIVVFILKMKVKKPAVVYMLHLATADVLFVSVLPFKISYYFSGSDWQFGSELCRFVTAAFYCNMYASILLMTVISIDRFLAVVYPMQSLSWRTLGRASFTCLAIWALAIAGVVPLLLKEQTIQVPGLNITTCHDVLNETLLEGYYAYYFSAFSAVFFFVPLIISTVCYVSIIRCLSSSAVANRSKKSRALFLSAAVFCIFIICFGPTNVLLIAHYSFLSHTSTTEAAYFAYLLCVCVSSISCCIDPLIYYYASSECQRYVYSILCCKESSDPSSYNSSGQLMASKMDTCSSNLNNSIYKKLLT

platelets = assay: Platelet intracellular Ca2+, agonist activity of peptides

Compound: CCCCCCCCCCCCCCCC(=O)N[C@@H](CCCNC(=N)N)C(=O)N[C@@H](CS)C(=O)N[C@@H](CCC(=O)O)C(=O)N[C@@H](CO)C(=O)N[C@@H](CO)C(=O)N[C@@H](CO)C(=O)N[C@@H](C)C(=O)N[C@@H](CCC(=O)O)C(=O)N[C@@H](C)C(=O)N[C@@H](CC(N)=O)C(=O)N[C@@H](CCCNC(=N)N)C(=O)N[C@@H](CO)C(=O)N[C@@H](CCCCN)C(=O)N[C@@H](CCCCN)C(=O)N[C@@H](CCC(=O)O)C(=O)N[C@@H](CCCNC(=N)N)C(=O)N[C@@H](CCC(=O)O)C(=O)N[C@@H](CC(C)C)C(=O)N[C@@H](Cc1ccccc1)C(N)=O [Pepducin P1pal-19E] (Palmitoyl-RCESSSAEANRSKKERELF-NH2)
- Agonist Efficacy (PAR1): 11 ± 1%
- loss of agonist activity (PAR1): ~90%
- IC50 (PAR1; Antagonist IC50): > 50 µM

Compound: CCCCCCCCCCCCCCCC(=O)N[C@@H](CCCNC(=N)N)C(=O)N[C@@H](CS)C(=O)N[C@@H](CC(C)C)C(=O)N[C@@H](CO)C(=O)N[C@@H](CO)C(=O)N[C@@H](CO)C(=O)N[C@@H](C)C(=O)N[C@H](C(=O)N[C@@H](C)C(=O)N[C@@H](CC(N)=O)C(=O)N[C@@H](CCC(N)=O)C(=O)N[C@@H](CO)C(=O)N[C@@H](CCC(N)=O)C(=O)N[C@@H](CCC(N)=O)C(=O)N[C@@H](CO)C(=O)N[C@@H](CCC(N)=O)C(=O)N[C@@H](C)C(=O)N[C@@H](CC(C)C)C(=O)N[C@@H](Cc1ccccc1)C(N)=O)C(C)C [Pepducin P1pal-19Q] (Palmitoyl-RCLSSSAVANQSQQSQALF-NH2)
- Agonist Efficacy (PAR1): 46 ± 8%
- loss in efficacy, stimulation of InsP (PAR1): 2 fold
- loss in efficacy, platelet aggregation (human platelets; relative to P1pal-19): 2 fold

Compound: RSLSSSAVANRSKKSRALF [Pepducin P1-i3-19]
- agonist activity, platelet intracellular Ca2+ (platelets): causes little stimulation of Ca^2+ fluxes

Compound: FSAVFFFVPL1ISTVCYVSI1RCLSSSAVANRSKKSRALF (FSAVFFFVPLIISTVCYVSIIRCLSSSAVANRSKKSRALF) [Pepducin P1-i3-40]
- agonist activity, platelet intracellular Ca2+ (platelets): causes a rapid intracellular Ca^2+ transient
- lag phase of Ca2+i transient (platelets): < 5 s

Compound: INLKALAALAKKIL [mastoparan, reference compound]
- stimulation of InsP production (agonist activity) (PAR1): did not stimulate InsP production

Compound: CCCCCCCCCCCCCCCC(=O)O [Palmitic acid, reference compound]
- agonist activity in platelet aggregation (human platelets): has no effect
- agonist activity, platelet intracellular Ca2+ (platelets): has no effect

Compound: Y12pal-18: pepducin based on the i3-loop of P2Y12; peptide YVRTRGVGKVPRKKVNVF (SEQ ID NO:33) (also: palmitoyl lipid, position not given here) [Pepducin Y12pal-18]
- agonist activity in platelet aggregation (human platelets): no agonist activity

Compound: VCYVSIIRSLSSSAVANRSKKSRALF [Pepducin P1-i3-26]
- agonist activity, platelet intracellular Ca2+ (platelets): gives a minor, unregulated Ca^2+i response

Compound: VPLIISTVCYVSIIRCLSSSAVANRSKKSRALF [Pepducin P1-i3-33]
- agonist activity, platelet intracellular Ca2+ (platelets): has similar potency to the P1-i3-40 peptide
